Data from patent publication US20050239656A1, “Pyridine compounds or salts thereof and herbicides containing the same” (priority 2002, published 2005).

What was measured:
velvetleaf [1] = test: Test Example 2: soil surface treatment, upland pot test; type: in vivo, Abutilon theophrasti MEDIC.; conditions: observed 20th to 28th day
Method in brief: (§1)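 Pots (1/170,000 ha) filled with upland field soil were seeded, then treated on the following day by spraying the soil surface with diluted formulation (1,500 L/ha) at a fixed a.i. dose. Control was rated visually on a 0–100% scale at 20–28 days.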

crabgrass [2] = test: Test Example 1: foliage treatment, upland pot test; type: in vivo, Digitaria sanguinalis L.; conditions: active ingredient 500 g/ha, observed 18th to 23rd day, 0 = non-treated, 100 = complete kill
green foxtail [3] = test: Test Example 1: foliage treatment, upland pot test; type: in vivo, Setaria viridis L.; conditions: active ingredient 500 g/ha, observed 18th to 23rd day, 0 = non-treated, 100 = complete kill
redroot pigweed [4] = test: Test Example 1: foliage treatment, upland pot test; type: in vivo, Amaranthus retroflexus L.; conditions: active ingredient 500 g/ha, observed 18th to 23rd day, 0 = non-treated, 100 = complete kill
wheat [5] = test: Test Example 2: soil surface treatment, upland pot test; type: in vivo, Triticum spp.; conditions: observed 20th to 28th day
Method in brief: as §1

green foxtail [6] = test: as above; type: in vivo, Setaria viridis L.; conditions: observed 20th to 28th day
Method in brief: as §1

corn [7] = test: as above; type: in vivo, Zea mays L.; conditions: active ingredient 500 g/ha, observed 20th to 28th day
Method in brief: as §1

barnyardgrass [8] = test: as above; type: in vivo, Echinochloa crus-galli L.; conditions: observed 20th to 28th day
Method in brief: as §1

velvetleaf [9] = test: Test Example 1: foliage treatment, upland pot test; type: in vivo, Abutilon theophrasti MEDIC.; conditions: active ingredient 500 g/ha, observed 18th to 23rd day, 0 = non-treated, 100 = complete kill
soybean [10] = test: Test Example 2: soil surface treatment, upland pot test; type: in vivo, Glycine max Merr.; conditions: observed 20th to 28th day
Method in brief: as §1

corn [11] = test: Test Example 1: foliage treatment, upland pot test; type: in vivo, Zea mays L.; conditions: crop, active ingredient 500 g/ha, observed 18th to 23rd day, 0 = non-treated, 100 = complete kill
Method in brief: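 In this upland pot foliage test, corn plants at 2.1 to 3.2 leaf stages were sprayed by a small size sprayer. The spray was a conventionally formulated wettable powder or emulsifiable concentrate weighed to a set active ingredient amount, diluted in water at 500 L/ha, plus 0.1% (v/v) agricultural spreader. Visual assessment on days 18 to 23 gave growth controlling degree (%), where 0 equals untreated and 100 means complete kill.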

rice [12] = test: Test Example 1: foliage treatment, upland pot test; type: in vivo, Oryza sativa L.; conditions: crop, active ingredient 500 g/ha, observed 18th to 23rd day, 0 = non-treated, 100 = complete kill
Method in brief: (§2)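 Upland pot test, foliar. Soybean 0.1–0.4 / wheat 1.3–2.4 / rice 1.2–2.6 / barnyardgrass 1.3–2.8 leaf stage at spraying; 500 L/ha carrier, 0.1% (v/v) spreader. Visual % control, 0 untreated to 100 dead, days 18–23.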

crabgrass [13] = test: Test Example 2: soil surface treatment, upland pot test; type: in vivo, Digitaria sanguinalis L.; conditions: observed 20th to 28th day
Method in brief: as §1

japanese bulrush = test: Test Example 3: paddy pot test, application under submerged conditions; type: in vivo, Scirpus juncoides; conditions: submerged application at 0.5 leaf stage, visually observed 14 days after application, 0 = non-treated, 100 = complete kill
Method in brief: (§3)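 Visual growth-control rating (0 = untreated, 100 = complete kill) 14 days after treatment. The formulated compound, as a diluted wettable powder or emulsifiable concentrate, went into 3–4 cm flood water at a predetermined active-ingredient dose once the weeds reached 0.5 leaf stage (wapato: primary leaf stage).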

barnyardgrass [14] = test: Test Example 1: foliage treatment, upland pot test; type: in vivo, Echinochloa crus-galli L.; conditions: active ingredient 500 g/ha, observed 18th to 23rd day, 0 = non-treated, 100 = complete kill
Method in brief: as §2

prickly sida [15] = test: Test Example 1: foliage treatment, upland pot test; type: in vivo, Sida spinosa L.; conditions: active ingredient 500 g/ha, observed 18th to 23rd day, 0 = non-treated, 100 = complete kill
barnyardgrass [16] = test: Test Example 3: paddy pot test, application under submerged conditions; type: in vivo, Echinochloa crus-galli L.; conditions: submerged application at 0.5 leaf stage, visually observed 14 days after application, 0 = non-treated, 100 = complete kill
Method in brief: as §3

rice [17] = test: Test Example 2: soil surface treatment, upland pot test; type: in vivo, Oryza sativa L.; conditions: observed 20th to 28th day
Method in brief: as §1

wheat [18] = test: Test Example 1: foliage treatment, upland pot test; type: in vivo, Triticum spp.; conditions: crop, active ingredient 500 g/ha, observed 18th to 23rd day, 0 = non-treated, 100 = complete kill
Description: Upland field soil was put into a 1/170,000 ha pot, and seed of various plants were sown. Then, when the plants reached predetermined leaf stages ((1) barnyardgrass: 1.3 to 2.8 leaf stages, (2) crabgrass: 1.0 to 2.8 leaf stages, (3) green foxtail: 1.3 to 2.6 leaf stages, (4) redroot pigweed: 0.1 to 1.2 leaf stages, (5) prickly sida: 0.1 to 1.2 leaf stages, (6) velvetleaf: 0.1 to 1.2 leaf stages, (7) tall morningglory: 0.1 to 1.5 leaf stages, (8) rice: 1.2 to 2.6 leaf stages, (9) wheat: 1.3 to 2.4 leaf stages, (10) corn, 2.1 to 3.2 leaf stages, (11) soybean: 0.1 to 0.4 leaf stage), a wettable powder or emulsifiable concentrate having the compound of the present invention formulated in accordance with a usual formulation method, was weighed so that the active ingredient would be a predetermined amount, and diluted with water in an amount of 500 L/ha. To the diluted solution, 0.1% (v/v) of agricultural spreader was added. The herbicide thus adjusted was applied by a small size sprayer for foliage treatment. On the 18th to 23rd days after the application of the herbicide, the growth of the respective plants was visually observed, and the herbicidal effects were evaluated by the growth controlling degrees (%) ranging from 0 (equivalent to the non-treated plot) to 100 (complete kill), whereby the results shown in Table 3, were obtained.

rice (var. Nihonbare) = test: Test Example 3: paddy pot test, transplanted rice; type: in vivo, Oryza sativa L.; conditions: applied 4th day after transplantation, visually observed 21st day after application, 0 = non-treated, 100 = complete kill
Method in brief: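 Rice (var. Nihonbare) at 2 leaf stage transplanted 3 cm deep into puddled paddy soil under 3–4 cm flooding; on day 4 after transplanting, diluted wettable powder or emulsifiable concentrate applied by pipette under submerged conditions at a set active-ingredient dose. Growth scored visually 21 days after application, 0 (untreated) to 100 (complete kill) %.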

redroot pigweed [19] = test: Test Example 2: soil surface treatment, upland pot test; type: in vivo, Amaranthus retroflexus L.; conditions: observed 20th to 28th day
Method in brief: as §1

prickly sida [20] = test: as above; type: in vivo, Sida spinosa L.; conditions: observed 20th to 28th day
Method in brief: as §1

soybean [21] = test: Test Example 1: foliage treatment, upland pot test; type: in vivo, Glycine max Merr.; conditions: crop, active ingredient 500 g/ha, observed 18th to 23rd day, 0 = non-treated, 100 = complete kill
Method in brief: as §2

Row | SMILES | Growth controlling degree (%) Velvetleaf (velvetleaf [1]; active ingredient 500 g/ha) [%] | Growth controlling degree (%) Crabgrass (crabgrass [2]) [%] | Growth controlling degree (%) Green foxtail (green foxtail [3]) [%] | Growth controlling degree (%) Redroot pigweed (redroot pigweed [4]) [%] | Growth controlling degree (%) wheat (wheat [5]; active ingredient 500 g/ha) [%] | Growth controlling degree (%) Green foxtail (green foxtail [6]; active ingredient 500 g/ha) [%] | Growth controlling degree (%) Corn (corn [7]) [%] | Growth controlling degree (%) Barnyardgrass (barnyardgrass [8]; active ingredient 500 g/ha) [%] | Growth controlling degree (%) Velvetleaf (velvetleaf [9]) [%] | Growth controlling degree (%) Corn (corn [11]) [%] | Growth controlling degree (%) Rice (rice [12]) [%] | Growth controlling degree (%) Crabgrass (crabgrass [13]; active ingredient 500 g/ha) [%] | Growth controlling degree (%) Japanese bulrush (japanese bulrush; active ingredient 250 g/ha) [%] | Growth controlling degree (%) Barnyardgrass (barnyardgrass [14]) [%] | Growth controlling degree (%) Prickly sida (prickly sida [15]) [%] | Growth controlling degree (%) Barnyardgrass (barnyardgrass [16]; active ingredient 250 g/ha) [%] | Growth controlling degree (%) Rice (rice [17]; active ingredient 500 g/ha) [%] | Growth controlling degree (%) wheat (wheat [18]) [%] | Growth controlling degree (%) Rice (rice (var. Nihonbare); active ingredient 250 g/ha) [%] | Growth controlling degree (%) Soybean (soybean [21]) [%] | other results
1 | CC(Oc1ccc(F)cc1)C(=O)N(C)C(c1cnccc1C(F)(F)F)C(C)C (mixture of isomers) [I-133] | 50 | 70 | 70 | 70 | 40 | 100 | 50 | 100 | 70 | 80 | 40 | 98 | 95 | 70 | 80 | 100 | 70 | 40 | 10 | 80 | Growth controlling degree (%) Soyabean (soybean [10]; active ingredient 500 g/ha): 30%; Growth controlling degree (%) Redroot pigweed (redroot pigweed [19]; active ingredient 500 g/ha): 50%; Growth controlling degree (%) Prickly sida (prickly sida [20]; active ingredient 500 g/ha): 80%
2 | CC(C)C(c1cnccc1C(F)(F)F)N(C)C(=O)Cc1csc2ccccc12 (centres unmarked) [I-192] | 0 |  | 60 | 80 | 0 | 80 | 10 | 98 | 70 |  | 10 | 80 |  | 80 | 90 |  | 10 | 0 |  | 80 | Growth controlling degree (%) Japanese bulrush (japanese bulrush; active ingredient 500 g/ha): 90%; Growth controlling degree (%) Barnyardgrass (barnyardgrass [16]; active ingredient 500 g/ha): 100%; Growth controlling degree (%) Rice (rice (var. Nihonbare); active ingredient 500 g/ha): 30%; Growth controlling degree (%) Redroot pigweed (redroot pigweed [19]; active ingredient 500 g/ha): 10%; Growth controlling degree (%) Prickly sida (prickly sida [20]; active ingredient 500 g/ha): 0%
3 | CCCCC(=O)N(C)C(c1cnccc1C(F)(F)F)C(C)C (centres unmarked) [I-199] |  | 80 | 70 | 60 |  |  |  |  | 60 | 60 | 50 |  | 98 | 70 | 70 | 100 |  | 50 | 40 | 60 | Growth controlling degree (%) Velvetleaf (velvetleaf [1]; active ingredient 250 g/ha): 50%; Growth controlling degree (%) wheat (wheat [5]; active ingredient 250 g/ha): 50%; Growth controlling degree (%) Green foxtail (green foxtail [6]; active ingredient 250 g/ha): 100%; Growth controlling degree (%) Barnyardgrass (barnyardgrass [8]; active ingredient 250 g/ha): 100%; Growth controlling degree (%) Soyabean (soybean [10]; active ingredient 250 g/ha): 20%; Growth controlling degree (%) Crabgrass (crabgrass [13]; active ingredient 250 g/ha): 100%; Growth controlling degree (%) Rice (rice [17]; active ingredient 250 g/ha): 90%; Growth controlling degree (%) Redroot pigweed (redroot pigweed [19]; active ingredient 250 g/ha): 70%; Growth controlling degree (%) Prickly sida (prickly sida [20]; active ingredient 250 g/ha): 80%
